Measurements from ChEMBL document CHEMBL3045862, “PRE-CLINICAL AND CLINICAL PHARMACOKINETICS OF THE DIASTEREOMERS OF ARTEETHER, A POTENT ANTIMALARIAL” (Med Chem Res, 2004).

Legend:
[1] = AUC (0 to infinity) in Macaca mulatta (Rhesus monkey) at 4 mg/kg, iv; type: ADME, organism-based, Plasma; design: time infinity, dose 4 mg/kg, route intravenous; settings: plasma
[2] = Cmax in Macaca mulatta (Rhesus monkey) at 7.5 mg/kg, administered intramuscularly; type: ADME, organism-based; design: dose 7.5 mg/kg, route intramuscular; settings: in vivo, im
[3] = AUC (0 to infinity) in Rattus norvegicus Sprague-Dawley (rat) at 2 mg/kg, iv; type: ADME, organism-based, Plasma; design: time infinity, dose 2 mg/kg, route intravenous; settings: Sprague-Dawley, plasma
[4] = system: Rattus norvegicus; experiment: Dose normalized AUC in Rattus norvegicus Sprague-Dawley (rat) at 9 mg/kg, po; type: ADME, organism-based; design: dose 9 mg/kg, route oral; settings: in vivo
[5] = Mean residence time in Rattus norvegicus Sprague-Dawley (rat) at 17.5 mg/kg, administered intramuscularly; type: ADME, organism-based; design: dose 17.5 mg/kg, route intramuscular; settings: in vivo, im
[6] = Tmax in Homo sapiens (human) at 150 mg; type: ADME, organism-based; settings: in vivo
[7] = Cmax in Macaca mulatta (Rhesus monkey) at 50 mg/kg, po; type: ADME, organism-based; design: dose 50 mg/kg, route oral; settings: in vivo
[8] = Tmax in Rattus norvegicus Sprague-Dawley (rat) at 9 mg/kg, administered intramuscularly; type: ADME, organism-based; design: dose 9 mg/kg, route intramuscular; settings: in vivo, im
[9] = Tmax in Macaca mulatta (Rhesus monkey) at 7.5 mg/kg, administered intramuscularly; type: ADME, organism-based; design: dose 7.5 mg/kg, route intramuscular; settings: in vivo, im
[10] = system: Rattus norvegicus; experiment: Dose normalized AUC in Rattus norvegicus Sprague-Dawley (rat) at 9 mg/kg, administered intramuscularly; type: ADME, organism-based; design: dose 9 mg/kg, route intramuscular; settings: in vivo, im
[11] = Mean residence time in Rattus norvegicus Sprague-Dawley (rat) at 17.5 mg/kg, po; type: ADME, organism-based; design: dose 17.5 mg/kg, route oral; settings: in vivo
[12] = Elimination half life in Rattus norvegicus Sprague-Dawley (rat) at 17.5 mg/kg, administered intramuscularly; type: ADME, organism-based; design: dose 17.5 mg/kg, route intramuscular; settings: in vivo, im, read-out: beta t1/2 (converted)
[13] = AUC (0 to infinity) in Homo sapiens (human) at 150 mg; type: ADME, organism-based; design: dose 150 mg, time infinity; settings: plasma
[14] = system: Rattus norvegicus; experiment: Dose normalized AUC in Rattus norvegicus Sprague-Dawley (rat) at 2 mg/kg, iv; type: ADME, organism-based; design: dose 2 mg/kg, route intravenous; settings: in vivo
[15] = system: Rhesus monkey; experiment: Dose normalized AUC in Macaca mulatta (Rhesus monkey) at 7.5 mg/kg, administered intramuscularly; type: ADME, organism-based; design: dose 7.5 mg/kg, route intramuscular; settings: in vivo, im
[16] = Tmax in Rattus norvegicus Sprague-Dawley (rat) at 30 mg/kg, administered intramuscularly; type: ADME, organism-based; design: dose 30 mg/kg, route intramuscular; settings: in vivo, im
[17] = Clearance in Rattus norvegicus Sprague-Dawley (rat) at 30 mg/kg, administered intramuscularly; type: ADME, organism-based; design: dose 30 mg/kg, route intramuscular; settings: Sprague-Dawley, in vivo, im
[18] = Elimination half life in Macaca mulatta (Rhesus monkey) at 7.5 mg/kg, administered intramuscularly; type: ADME, organism-based; design: dose 7.5 mg/kg, route intramuscular; settings: in vivo, im, read-out: beta t1/2 (converted)
[19] = Cmax in Rattus norvegicus Sprague-Dawley (rat) at 9 mg/kg, po; type: ADME, organism-based; design: dose 9 mg/kg, route oral; settings: in vivo
[20] = Clearance in Rattus norvegicus Sprague-Dawley (rat) at 2 mg/kg, iv; type: ADME, organism-based; design: dose 2 mg/kg, route intravenous; settings: Sprague-Dawley, in vivo
[21] = Elimination half life in Macaca mulatta (Rhesus monkey) at 50 mg/kg, po; type: ADME, organism-based; design: dose 50 mg/kg, route oral; settings: in vivo, read-out: beta t1/2 (converted)
[22] = AUC (0 to infinity) in Macaca mulatta (Rhesus monkey) at 7.5 mg/kg, administered intramuscularly; type: ADME, organism-based, Plasma; design: time infinity, dose 7.5 mg/kg, route intramuscular; settings: plasma, im
[23] = system: Rhesus monkey; experiment: Volume of distribution in Macaca mulatta (Rhesus monkey) at 7.5 mg/kg, administered intramuscularly; type: ADME, organism-based; design: dose 7.5 mg/kg, route intramuscular; settings: in vivo, im
[24] = system: Rattus norvegicus; experiment: Dose normalized AUC in Rattus norvegicus Sprague-Dawley (rat) at 30 mg/kg, administered intramuscularly; type: ADME, organism-based; design: dose 30 mg/kg, route intramuscular; settings: in vivo, im
[25] = system: Rattus norvegicus; experiment: Volume of distribution in Rattus norvegicus Sprague-Dawley (rat) at 9 mg/kg, po; type: ADME, organism-based; design: dose 9 mg/kg, route oral; settings: in vivo
[26] = Mean residence time in Macaca mulatta (Rhesus monkey) at 7.5 mg/kg, administered intramuscularly; type: ADME, organism-based; design: dose 7.5 mg/kg, route intramuscular; settings: in vivo, im
[27] = Mean residence time in Rattus norvegicus Sprague-Dawley (rat) at 2 mg/kg, iv; type: ADME, organism-based; design: dose 2 mg/kg, route intravenous; settings: in vivo
[28] = species: Homo sapiens; experiment: Dose normalized AUC in Homo sapiens (human) at 150 mg; type: ADME, organism-based; settings: in vivo
[29] = Mean residence time in Rattus norvegicus Sprague-Dawley (rat) at 9 mg/kg, administered intramuscularly; type: ADME, organism-based; design: dose 9 mg/kg, route intramuscular; settings: in vivo, im
[30] = Mean residence time in Macaca mulatta (Rhesus monkey) at 50 mg/kg, po; type: ADME, organism-based; design: dose 50 mg/kg, route oral; settings: in vivo
[31] = system: Rhesus monkey; experiment: Dose normalized AUC in Macaca mulatta (Rhesus monkey) at 50 mg/kg, po; type: ADME, organism-based; design: dose 50 mg/kg, route oral; settings: in vivo
[32] = Elimination half life in Rattus norvegicus Sprague-Dawley (rat) at 9 mg/kg, po; type: ADME, organism-based; design: dose 9 mg/kg, route oral; settings: in vivo, read-out: beta t1/2 (converted)
[33] = AUC (0 to infinity) in Macaca mulatta (Rhesus monkey) at 50 mg/kg, po; type: ADME, organism-based, Plasma; design: time infinity, dose 50 mg/kg, route oral; settings: plasma
[34] = AUC (0 to infinity) in Rattus norvegicus Sprague-Dawley (rat) at 30 mg/kg, po; type: ADME, organism-based, Plasma; design: time infinity, dose 30 mg/kg, route oral; settings: Sprague-Dawley, plasma
[35] = Mean residence time in Homo sapiens (human) at 150 mg; type: ADME, organism-based; settings: in vivo
[36] = Clearance in Homo sapiens (human) at 150 mg; type: ADME, organism-based; settings: in vivo
[37] = Elimination half life in Rattus norvegicus Sprague-Dawley (rat) at 30 mg/kg, po; type: ADME, organism-based; design: dose 30 mg/kg, route oral; settings: in vivo, read-out: beta t1/2 (converted)
[38] = Elimination half life in Homo sapiens (human) at 150 mg; type: ADME, organism-based; settings: in vivo, read-out: beta t1/2 (converted)
[39] = Tmax in Rattus norvegicus Sprague-Dawley (rat) at 17.5 mg/kg, po; type: ADME, organism-based; design: dose 17.5 mg/kg, route oral; settings: in vivo
[40] = AUC (0 to infinity) in Rattus norvegicus Sprague-Dawley (rat) at 30 mg/kg, administered intramuscularly; type: ADME, organism-based, Plasma; design: time infinity, dose 30 mg/kg, route intramuscular; settings: Sprague-Dawley, plasma, im

CCO[C@H]1O[C@@H]2O[C@@]3(C)CC[C@H]4[C@H](C)CC[C@@H]([C@H]1C)[C@@]24OO3 [ARTEMOTIL]
AUC(0-inf) [1]: 1220 ng·h/mL
Cmax [2]: 45.2 ng/mL
AUC(0-inf) [3]: 185 ng·h/mL
AUC/dose [4]: 7.4 ng·h/mL
MRT [5]: 33.2 h
Tmax [6]: 6.9 min
Cmax [7]: 1.7 ng/mL
Tmax [8]: 20 min
Tmax [9]: 1.83 h
AUC/dose [10]: 187.8 ng·h/mL
MRT [11]: 6.9 h
half-life [12]: 1650 min
AUC(0-inf) [13]: 2330 ng·h/mL
AUC/dose [14]: 132 ng·h/mL
AUC/dose [15]: 142.2 ng·h/mL
Tmax [16]: 10 min
CL/F [17]: 762 mL/min/kg
half-life [18]: 1150 min
Cmax [19]: 10.3 ng/mL
clearance [20]: 127 mL/min/kg
half-life [21]: 264 min
AUC(0-inf) [22]: 746 ng·h/mL
Vd [23]: 197.2 L/kg
AUC/dose [24]: 19.4 ng·h/mL
Vd [25]: 770.8 L/kg
MRT [26]: 26.7 h
MRT [27]: 54 min
AUC/dose [28]: 1315.7 ng·h/mL
MRT [29]: 40.8 h
MRT [30]: 5.8 h
AUC/dose [31]: 0.2 ng·h/mL
half-life [32]: 252 min
AUC(0-inf) [33]: 8.5 ng·h/mL
AUC(0-inf) [34]: 25.6 ng·h/mL
MRT [35]: 47.4 h
clearance [36]: 13.3 mL/min/kg
half-life [37]: 168 min
half-life [38]: 1810 min
Tmax [39]: 5 min
AUC(0-inf) [40]: 407 ng·h/mL
